Laboratory results as given in publication PMC11240139, “Exploring the antitumor potential of novel quinoline derivatives via tubulin polymerization inhibition in breast cancer; design, synthesis and molecular docking” (RSC Advances, 2024).

Tests used:
Test in all cases: NCI-60 SRB cytotoxicity screen
Assay type in all cases: cell-based
HL-60(TB) (leukemia) = settings: Homo sapiens, single dose 10 μM, read-out: growth inhibition (GI%)
MOLT-4 (leukemia) = settings: Homo sapiens; MOLT-4, single dose 10 μM; read-out: growth inhibition (GI%)
[1] = test system: HOP-92 (non-small cell lung cancer); settings: Homo sapiens; HOP-92, single dose 10 μM; read-out: growth inhibition (GI%)
[2] = test system: NCI-H226 (non-small cell lung cancer); settings: NCI-H226, single dose 10 μM; for inhibition at 10 µM: Homo sapiens, read-out: growth inhibition (GI%)
[3] = test system: NCI-H23 (non-small cell lung cancer); settings: Homo sapiens; NCI-H23, single dose 10 μM; read-out: growth inhibition (GI%)
[4] = test system: NCI-H322M (non-small cell lung cancer); settings: Homo sapiens, single dose 10 μM, read-out: growth inhibition (GI%)
[5] = test system: NCI-H460 (non-small cell lung cancer); settings: Homo sapiens; NCI-H460, single dose 10 μM; read-out: growth inhibition (GI%)
HCC-2998 (colon cancer) = settings: Homo sapiens; HCC-2998, single dose 10 μM; read-out: growth inhibition (GI%)
HCT-116 (colon cancer) = settings: Homo sapiens; HCT-116, single dose 10 μM; read-out: growth inhibition (GI%)
HT29 (colon cancer) = settings: Homo sapiens, HT-29; HT29, single dose 10 μM; read-out: growth inhibition (GI%)
SW-620 (colon cancer) = settings: Homo sapiens; SW-620, single dose 10 μM; read-out: growth inhibition (GI%)
SF-539 (CNS cancer) = settings: Homo sapiens; SF-539, single dose 10 μM; read-out: growth inhibition (GI%)
SNB-19 (CNS cancer) = settings: Homo sapiens; SNB-19, single dose 10 μM; read-out: growth inhibition (GI%)
U251 (CNS cancer) = settings: Homo sapiens, U-251; U251, single dose 10 μM; read-out: growth inhibition (GI%)
M14 (melanoma) = settings: Homo sapiens; M14, single dose 10 μM; read-out: growth inhibition (GI%)
MDA-MB-435 (melanoma) = settings: Homo sapiens, MDA-MB-435, read-out: growth inhibition (GI%)
SK-MEL-28 (melanoma) = settings: Homo sapiens; SK-MEL-28, single dose 10 μM; read-out: growth inhibition (GI%)
SK-MEL-5 (melanoma) = settings: Homo sapiens; SK-MEL-5, single dose 10 μM; read-out: growth inhibition (GI%)
OVCAR-3 (ovarian cancer) = settings: Homo sapiens; OVCAR-3, single dose 10 μM; read-out: growth inhibition (GI%)
OVCAR-4 (ovarian cancer) = settings: Homo sapiens; OVCAR-4, single dose 10 μM; read-out: growth inhibition (GI%)
786-0 (renal cancer) = settings: Homo sapiens; 786-0, single dose 10 μM; read-out: growth inhibition (GI%)
A498 (renal cancer) = settings: Homo sapiens; A498, single dose 10 μM; read-out: growth inhibition (GI%)
CAKI-1 (renal cancer) = settings: Homo sapiens; CAKI-1, single dose 10 μM; read-out: growth inhibition (GI%)
SN12C (renal cancer) = settings: Homo sapiens, single dose 10 μM, read-out: growth inhibition (GI%)
TK-10 (renal cancer) = settings: Homo sapiens; TK-10, single dose 10 μM; read-out: growth inhibition (GI%)
UO-31 (renal cancer) = settings: Homo sapiens; UO-31, single dose 10 μM; read-out: growth inhibition (GI%)
PC-3 (prostate cancer) = settings: PC-3, single dose 10 μM; read-out: growth inhibition (GI%)
MCF7 (breast cancer) = settings: Homo sapiens; MCF7, single dose 10 μM; read-out: growth inhibition (GI%)
[6] = test system: MDA-MB-231/ATCC (breast cancer); settings: Homo sapiens, MDA-MB-231, read-out: growth inhibition (GI%)
[7] = test system: MDA-MB-468 (breast cancer); settings: Homo sapiens; MDA-MB-468, single dose 10 μM; read-out: growth inhibition (GI%)
Protocol: The cytotoxic activity of the synthesized quinoline derivatives was determined by the national cancer institute (NCI, Bethesda, Maryland, USA) against 60 different cancer cell lines at a single high dose (10^−5 M) in the full NCI 60 cell panel using the sulforhodamine B assay for cell viability evaluation. In summary, 5 × 10^3 cells were in 96-well plate and incubated in complete media for 24 h. Cells were treated with 100 μL of media containing each newly synthesized compound. After drug exposure, cells were fixed by replacing media with 150 μL of 10% TCA and incubated at 4 °C for 1 h. The TCA solution was removed, and the cells were washed 5 times with distilled water. Aliquots of 70 μL SRB solution (0.4% w/v) were added and incubated in a dark place at room temperature for 10 min. The plates were washed 3 times with 1% acetic acid and allowed to air-dry overnight. Then, 150 μL of TRIS (10 mM) was added to dissolve protein-bound SRB stain. The absorbance was measured at 540 nm.% Cytotoxicity = [1 − (AVx/AVNC)] × 100where AVx denotes the average absorbance of the sample well and AVNC denotes the average absorbance of the negative control.
The methodology of the NCI anticancer screening has been described in details at (http://www.dtp.nci.nih.gov). The anticancer assay was performed in full NCI 60 cell lines derived from nine tumor subpanels, including leukemia, lung, colon, CNS, melanoma, ovarian, renal, prostate, and breast cancer cell lines.
The cell lines were first cultured for 48 h, after being exposed to a single dosage of the compound. Using the protein-binding dye sulforhodamine B dye, cell proliferation and viability were evaluated (SRB assay). The results were presented for each chemical as GI%. Compound that met NCI criteria for substantial activity were further evaluated using a five-dose experiment. The NCI60 cell lines were treated with the chemicals in this assay at five different concentration levels (0.01, 0.1, 1, 10, and 100 μM).

Compound | inhibition at 10 µM (HL-60(TB) (leukemia)) [%] | inhibition at 10 µM (MOLT-4 (leukemia)) [%] | inhibition at 10 µM [1] [%] | inhibition at 10 µM [2] [%] | inhibition at 10 µM [3] [%] | inhibition at 10 µM [4] [%] | inhibition at 10 µM [5] [%] | inhibition at 10 µM (HCC-2998 (colon cancer)) [%] | inhibition at 10 µM (HCT-116 (colon cancer)) [%] | inhibition at 10 µM (HT29 (colon cancer)) [%] | inhibition at 10 µM (SW-620 (colon cancer)) [%] | inhibition at 10 µM (SF-539 (CNS cancer)) [%] | inhibition at 10 µM (SNB-19 (CNS cancer)) [%] | inhibition at 10 µM (U251 (CNS cancer)) [%] | inhibition at 10 µM (M14 (melanoma)) [%] | inhibition at 10 µM (MDA-MB-435 (melanoma)) [%] | inhibition at 10 µM (SK-MEL-5 (melanoma)) [%] | inhibition at 10 µM (OVCAR-3 (ovarian cancer)) [%] | inhibition at 10 µM (OVCAR-4 (ovarian cancer)) [%] | inhibition at 10 µM (786-0 (renal cancer)) [%] | also measured
CCc1cccc2cc(C=CC(=O)c3ccc(OC)cc3)c(Cl)nc12 [Compound 3a, 3-(2-Chloro-8-ethylquinolin-3-yl)-1-(4-methoxyphenyl)prop-2-en-1-one] | 45.8 | 16.8 | 27.3 | 79.9 | < 10 | < 10 | < 10 | < 10 | < 10 | < 10 | < 10 | 18.9 | < 10 | 17.9 | < 10 | < 10 | < 10 | < 10 | 13.5 | < 10 | inhibition at 10 µM (SK-MEL-28 (melanoma)): < 10%; inhibition at 10 µM (A498 (renal cancer)): < 10%; inhibition at 10 µM (CAKI-1 (renal cancer)): 19.3%; inhibition at 10 µM (SN12C (renal cancer)): < 10%; inhibition at 10 µM (TK-10 (renal cancer)): < 10%; inhibition at 10 µM (UO-31 (renal cancer)): < 10%; inhibition at 10 µM (PC-3 (prostate cancer)): < 10%; inhibition at 10 µM (MCF7 (breast cancer)): 18%; inhibition at 10 µM [6]: < 10%; inhibition at 10 µM [7]: < 10%
CCc1cccc2cc(-c3cc(-c4cc(OC)c(OC)c(OC)c4)[nH]c(=S)c3C#N)c(Cl)nc12 [Compound 5c, 4-(2-Chloro-8-ethylquinolin-3-yl)-2-thioxo-6-(3,4,5-trimethoxyphenyl)-1,2-dihydropyridine-3-carbonitrile] | 51.8 | 61.2 | 77.4 | 63.3 | 33.7 | 34 | 21.8 | 33 | 27.1 | 20.4 | 10 | 29.7 | 39.1 | 31 | 31.2 | 24.9 | 52.2 | 16.9 | 41.6 | 27.9 | inhibition at 10 µM (SK-MEL-28 (melanoma)): < 10%; inhibition at 10 µM (A498 (renal cancer)): 18.8%; inhibition at 10 µM (CAKI-1 (renal cancer)): 69.8%; inhibition at 10 µM (SN12C (renal cancer)): 39.7%; inhibition at 10 µM (TK-10 (renal cancer)): < 10%; inhibition at 10 µM (UO-31 (renal cancer)): 45.2%; inhibition at 10 µM (PC-3 (prostate cancer)): 48.9%; inhibition at 10 µM (MCF7 (breast cancer)): 46.5%; inhibition at 10 µM [6]: 52.5%; inhibition at 10 µM [7]: 50.5%
CCc1cccc2cc(C=CC(=O)c3ccc(OC)c(OC)c3)c(Cl)nc12 [Compound 3b, 3-(2-Chloro-8-ethylquinolin-3-yl)-1-(3,4-dimethoxyphenyl)prop-2-en-1-one] | 61 | 49.2 | 27.4 | > 100 | 20.2 | 22.4 | 27.7 | 17.7 | 62.8 | 26.9 | 72.2 | 99.4 | 54.4 | 65.2 | < 10 | 17.1 | 23.2 | 31.7 | 42.3 | 25.7 | growth inhibition (GI%) [2]: lethal effect; inhibition at 10 µM (SK-MEL-28 (melanoma)): < 10%; inhibition at 10 µM (A498 (renal cancer)): < 10%; inhibition at 10 µM (CAKI-1 (renal cancer)): 40.2%; inhibition at 10 µM (SN12C (renal cancer)): 23.7%; inhibition at 10 µM (TK-10 (renal cancer)): < 10%; inhibition at 10 µM (UO-31 (renal cancer)): 41.8%; inhibition at 10 µM (PC-3 (prostate cancer)): 32%; inhibition at 10 µM (MCF7 (breast cancer)): 37.1%; inhibition at 10 µM [6]: 29.3%; inhibition at 10 µM [7]: 39.8%
CCc1cccc2cc(C3C=C(c4cc(OC)c(OC)c(OC)c4)NC(=S)N3)c(Cl)nc12 (stereo not drawn) [Compound 6c, 4-(2-Chloro-8-ethylquinolin-3-yl)-6-(3,4,5-trimethoxyphenyl)-3,4-dihydropyrimidine-2(1H)-thione] | 41.5 | 67.7 | 28.3 | 58 | 25.8 | 18.3 | 30 | 26.1 | 41.2 | 36.4 | 13.4 | 30.3 | 23.4 | 26.6 | 30.1 | 43.5 | 38.2 | 14.2 | 48.9 | 18.2 | inhibition at 10 µM (A498 (renal cancer)): 11.6%; inhibition at 10 µM (CAKI-1 (renal cancer)): 64.1%; inhibition at 10 µM (SN12C (renal cancer)): 21.7%; inhibition at 10 µM (TK-10 (renal cancer)): 12.6%; inhibition at 10 µM (UO-31 (renal cancer)): 67.7%; inhibition at 10 µM (PC-3 (prostate cancer)): 46.2%; inhibition at 10 µM (MCF7 (breast cancer)): 44.3%; inhibition at 10 µM [6]: 46.1%; inhibition at 10 µM [7]: 40.5%
